Data on two compounds can be found in patent publication US6229055A, “Synthesis of fluorinated xanthene derivatives” (Molecular Probes, Inc., priority 2000, dated 2001).

Series [1] is described as follows: Fluorescence response of heavy metal ion indicator. Format: binding. As to conditions: 1 micromolar compound, 5 micromolar Cu(I), 5 mM MOPS buffer pH 7.2. The method, then: The tetramethyl ester intermediate is then dissolved in 15 mL 1,4-dioxane and concentrated ammonium hydroxide (0.8 mL) is added in one portion. The reaction mixture is centrifuged and the orange pellet is dissolved in 5 mL pure water, then applied to a column of lipophilic SEPHADEX […] resin and eluted with pure water. Pure column fractions are combined, frozen and lyophilized to give phenanthroline conjugate, dipotassium salt (Compound 106) as an orange powder. κ=54,479 cm^-1 M^-1 in 10 mM EGTA, 100 mM KCl, 10 mM MOPS buffer at pH 7.20.

Series [2] can be described thus: Stability toward hydrogen peroxide without peroxidase. Format: physicochemical. As to conditions: absence of horseradish peroxidase, 1 mM substrate, OPD buffer pH 5.5. From the text:
(§1) In another substrate embodiment, the dye compounds are fluorinated dyes for which R^11 is H, that are substrates for oxidative enzymes and other reactive oxidizing agents, particularly for peroxidase enzymes. […] Unlike their non-fluorinated analogs, fluorinated dihydrofluorescein and dihydrorhodol, are stable in aqueous solutions without the use of blocking groups on the hydroxyl or amine functions that typically reduce aqueous solubility. For example, Compound 84 (4,5,6,7-tetrafluorodihydrofluorescein, Example 85) is soluble in water to at least 2 mM, while existing diacetate fluorogenic peroxidase substrates are typically soluble only in the single-digit μM concentration range.
A 2 mM solution (0.5 mL) of TFDHF is prepared in water. OPD buffer (0.5M Phosphate-citrate buffer) without hydrogen peroxide (pH 5.5, 0.5 mL) is added, resulting in a 1 mM concentration of substrate. Minor background fluorescence, indicating the presence of some contaminating oxidized dye, serves to provide a fluorescence signal at time 0. […] After incubation at room temperature in darkness for 25 minutes, the reaction solution is diluted 1:20 into potassium phosphate buffer at pH 8, and fluorescence emission spectra are recorded.

The target in series [3] is T1, Horseradish Peroxidase (HRP) (Armoracia rusticana, UniProt P00433).
T1 sequence (P00433 31-353): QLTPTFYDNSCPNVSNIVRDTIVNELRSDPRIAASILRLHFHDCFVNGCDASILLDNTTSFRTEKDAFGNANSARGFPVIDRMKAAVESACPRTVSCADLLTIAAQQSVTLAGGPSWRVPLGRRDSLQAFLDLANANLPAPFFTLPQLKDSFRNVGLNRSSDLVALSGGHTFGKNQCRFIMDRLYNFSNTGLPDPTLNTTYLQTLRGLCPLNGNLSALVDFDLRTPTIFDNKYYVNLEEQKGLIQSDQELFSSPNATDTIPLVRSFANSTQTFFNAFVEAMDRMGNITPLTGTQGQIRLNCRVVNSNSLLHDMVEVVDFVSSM
Description: Detection of horseradish peroxidase activity in vitro. Format: biochemical. As to conditions: 1 mM substrate, OPD buffer with hydrogen peroxide, HRP 1 μL, 10^-4 Units. The method, then:
A 2 mM solution (0.5 mL) of TFDHF is prepared in water. […] Minor background fluorescence, indicating the presence of some contaminating oxidized dye, serves to provide a fluorescence signal at time 0. […] After incubation at room temperature in darkness for 25 minutes, the reaction solution is diluted 1:20 into potassium phosphate buffer at pH 8, and fluorescence emission spectra are recorded.

The nature of series [4]: Solubility in water. Format: physicochemical.
Excerpt: as §1

Take `O=C(Nc1cc2cccnc2c2ncccc12)c1ccc2c(c1)C(=O)OC21c2cc(F)c(O)cc2Oc2cc(O)c(F)cc21` [Compound 106]: in series [1], the “decrease in emission intensity at 523 nm” value is reported as 5 fold.

On to `O=C(O)c1c(F)c(F)c(F)c(F)c1C1c2ccc(O)cc2Oc2cc(O)ccc21` [Compound 84, 4,5,6,7-tetrafluorodihydrofluorescein], for which the “reaction with hydrogen peroxide alone” value is on record as “stable toward reaction of hydrogen peroxide during the period of analysis” in series [2] and “no detectable fluorescence increase” in series [2] (listed as TFDHF). In series [3], the “fluorescence production on addition of HRP” value is “immediate production of bright yellow fluorescence”. The soluble in water entry in series [4] is reported as “at least 2 mM”.
